Experimental data taken from US20220017468A1, “ISOQUINOLINE COMPOUNDS AND THEIR USE IN TREATING AhR IMBALANCE” (Dermavant Sciences GmbH, priority 2020, published 2022).
Several values for one entry are separate records, joined by “and”; a condition that tells them apart may be missing. Identical values can stand only once. Like-named read-outs stand apart in the source and are kept apart here.

Key:
[1] = metabolic stability in liver microsomes, mouse; type: in vitro ADME
[2] = blood-to-plasma ratio and blood cell association, human; type: in vitro ADME
Human Plasma Proteins = test: plasma protein binding by Rapid Equilibrium Dialysis, human; type: in vitro ADME
Source text: (§1) The blood-to-plasma ratios were similar across species (1.22-1.36, Table 9).

[3] = as above; type: in vitro ADME; conditions: human, plasma
Source text: as §1

[4] = metabolic stability in hepatocytes, human; type: in vitro ADME
[5] = oxygen radical absorbance capacity (ORAC) test; type: biochemical; conditions: Trolox Equivalent Values
[6] = metabolic stability in liver microsomes, rat; type: in vitro ADME
[7] = metabolic stability in hepatocytes, minipig; type: in vitro ADME
[8] = pharmacokinetics after a single intravenous dose, rat; type: in vivo; conditions: plasma, 1 mg/kg intravenous
Source text: Bioavailability was 46.5% and 41.0% for 30% Captisol and 30% Cavitron, respectively. 30% Captisol formulation was selected for the 7-day subcutaneous toxicity study in rat.

Nrf2 = test: luciferase-based reporter assay for NQO1 gene expression; type: cell-based
[9] = test system: dinitrofluorobenzene (DNFB)-challenged mouse; test: DNFB mouse model; type: in vivo; conditions: 0.3% in ethanolic formulation, twice daily
Source text: DNFB is a small chemical hapten that induces a delayed-type hypersensitivity reaction with some similarity to human atopic dermatitis. […] This may indicate reduced exposure to the compound in the second study, although additional data would be required to understand whether this discrepancy results from different dosing strategies (q.d. vs b.i.d.), limitations of cream formulation 1, or another reason.
Healthy female CD1 mice (Crl:CD1(ICR)) were shaved on the abdomen and the nape of the neck under a 3 to 5% isoflurane anesthesia.
After body weight measurement, animals were allocated to study groups, according to the treatment table below. The study was divided in two arms, separated by 1 week, in order to accommodate for the in life monitoring of scratching monitoring. Half of the animals from each group (6 mice) were allocated in arm 1 and arm 2 respectively.
For each topical treatment, 100 mg of cream or 100 μL of liquid formulation were applied on the mouse nape of the neck skin using a solvent pipette. When creams were used, they were spread with a finger and allowed to penetrate the skin by massage until complete absorption. […]
Mice were culled on Day 17 under a 3 to 5% isoflurane anesthesia, 4 hours after the last topical treatment, and 48 hours after the last DNFB or acetone/olive oil challenge. […] Epidermal (FIG. 6C1) and dermal thickness (FIG. 6C2) were measured.

[10] = metabolic stability in liver microsomes, rabbit; type: in vitro ADME
[11] = metabolic stability in liver microsomes, human; type: in vitro ADME

For `CC(C)c1c(O)cc(-c2cc3ccccc3cn2)cc1O`, the “CLint, mic” value ([1]; mouse liver microsomes, 0.5 μM) was 23.4 mL/min/g liver, the CLint scaled at 0.5 μM ([1]; mouse liver microsomes, 0.5 μM, read-out: Scaled CLint, mic) was 1190 mL/min/kg and the half-life at 0.5 μM ([1]; mouse, microsomes) was 2.84 min. The “% Blood Cell Association Mean (% CV)” value ([2]; 1 μM) was 55.0 (2.39) %, the “% Blood Cell Association Replicate” value ([2]; 1 μM) was 53.9% and 56.4% and 54.6% and the “Blood-to-plasma Ratio Replicate” value ([2]; 1 μM) was 1.29 and 1.23. The “Mean % Blood Stability” value ([2]; 1 μM) was 107%, the blood plasma ratio at 1 μM ([2]; read-out: Blood-to-plasma Ratio Mean (% CV)) was 1.24 and the blood plasma ratio at 1 μM ([2]; read-out: Blood-to-plasma Ratio Replicate) was 1.21. The recovery at 2 μM (Human Plasma Proteins) was 102%, the “% Unbound Replicate” value (Human Plasma Proteins; 2 μM) was 1.05% and 1.13% and the “Mean % Stability at 4 hrs” value (Human Plasma Proteins; 2 μM) was 101%. The fraction unbound at 2 μM ([3]; read-out: % Unbound Mean (% CV)) was 0.0108, the fraction unbound at 2 μM ([3]; read-out: % Unbound Replicate) was 0.0106 and the fraction unbound at 2 μM ([3]; read-out: Mean % Bound (converted)) was 0.011. The half-life at 0.5 μM [4] was 10.4 min, the “CLint, hep” value ([4]; 0.5 μM) was 15.7 mL/min/g liver and the CLint scaled at 0.5 μM ([4]; read-out: Scaled CLint, hep) was 384 mL/min/kg. For the same compound, the Hydroxyl-radical [5] was 759 TEV, the Peroxyl radical-hydro [5] was 3267 TEV and the Peroxyl radical-lipo [5] was 1397 TEV. The Peroxynitrite [5] was 100 TEV, the Singlet oxygen [5] was 2914 TEV and the “Total ORAC value” [5] was 8437 TEV. For the same compound, the “CLint, mic” value ([6]; rat liver microsomes, 0.5 μM) was 6.21 mL/min/g liver, the CLint scaled at 0.5 μM ([6]; rat liver microsomes, 0.5 μM, read-out: Scaled CLint, mic) was 224 mL/min/kg and the half-life at 0.5 μM ([6]; rat, microsomes) was 10.3 min. For the same compound, the “in vitro-to-in vivo extrapolation (IVIVE) ratio” value ([7]; minipig) was 0.27, the “CLint, hep” value ([7]; minipig hepatocytes, 0.5 μM) was 6.27 mL/min/g liver and the half-life at 0.5 μM ([7]; minipig hepatocytes, 0.5 μM) was 26.5 min. The CLint scaled at 0.5 μM ([7]; minipig hepatocytes, 0.5 μM, read-out: Scaled CLint, hep) was 105 mL/min/kg, the AUC(0-inf) ([8]; mean n = 3) was 95.7 ng·h/mL and the half-life ([8]; mean n = 3) was 41.4 min. For the same compound, the clearance ([8]; mean n = 3, read-out: CLp) was 175 mL/min/kg, the Vd ([8]; mean n = 3, read-out: Vss) was 6 L/kg and the “Nrf2 pEC50” value (Nrf2) was “pEC50 = 7.0”. For the same compound, the “reduction in dermal thickness” value [9] was 34%, the “reduction in epidermal thickness” value [9] was 20% and the “CLint, mic” value ([10]; rabbit liver microsomes, 0.5 μM) was 11.9 mL/min/g liver. For the same compound, the CLint scaled at 0.5 μM ([10]; rabbit liver microsomes, 0.5 μM, read-out: Scaled CLint, mic) was 367 mL/min/kg, the half-life at 0.5 μM ([10]; rabbit, microsomes) was 6.1 min and the “CLint, mic” value ([11]; human liver microsomes, 0.5 μM) was 1.35 mL/min/g liver. It also gave a CLint scaled at 0.5 μM ([11]; human liver microsomes, 0.5 μM, read-out: Scaled CLint, mic) of 33.1 mL/min/kg and a half-life at 0.5 μM ([11]; human, microsomes) of 40.9 min.
